# Reference: patent US20200062738A1, “ANTI-CANCER STEMNESS DRUGS” (Development Center for Biotechnology, priority 2017, published 2020)
# What was measured:
# H1975-luc cells [1] = assay: Orthotopic H1975-luc model, treatment starting 2 days after tumor implantation (FIG. 4); type: in vivo, mice; details: for tumor-free rate: 3 mpk IV, 5 times/week
# From the text: (§1) Mice were orthotopically implanted with H1975-luc cells (10^6 cells/mouse). On day 0 (defined as 2 days after tumor implantation), mice were given drug treatments for 4 weeks (5 times/week), and the tumor formations were followed by non-invasive imaging on days 14 and 28.
# (§2) The mouse cancer models were generated as described above. Orthotopic H1975-Luc model was described as previous study. BI-44 was administrated by IV injection through tail vein, 5 times/7 days, with the doses indicated on the figure. Gefitinib and Afatinib were administrated orally, 5 times/7 days, with the dose of 20 mpk (mg/Kg).
# as §1, with “In the first animal model, Mice” for “Mice”, “were started to receive” for “were given”, “on day” for “on days”
# BI-44 was administrated starting 2 days after orthotopic lung tumor implantation according to the administration scheme shown in FIG. 4A, and the tumor formations were evaluated via non-invasive bioluminescent imaging on days 14 and 28.
# BMI-1 = BMI-1 protein expression by western blot in H1975 cells; type: cell-based, human; details: for BMI-1 protein expression: 10 μM, 6 h, western blot; for inhibition of BMI-1 expression, dose dependence: different concentrations, western blot (#44: 6 h)
# Protocol: (§3) The abilities of compounds of the invention to inhibit BMI-1/MCl-1 expressions were assayed with cell cultures. BMI-1 and MCL-1 are overexpressed in many cancers, such as lung cancer cell line H1975. Therefore, cancer cells that overexpress BMI-1/MCL-1 provide a convenient platform for assaying BMI-1/MCL-1 inhibition.
# (§4) After drug treatments, cells were washed twice with PBS, scraped, and resuspended in RIPA buffer containing protease inhibitors (20 mM Tris-HCl pH 7.5, 150 mM NaCl, 1 mM Na2EDTA, 1 mM EGTA, 1% NP-40, 1% sodium deoxycholate, 2.5 mM sodium pyrophosphate, 1 mM b-glycerophosphate, 1 mM Na3VO4, 1 μg/ml leupeptin). Cell lysate was sonicated for 5-10 min, and centrifuged at 14000 rpm for 20 minutes at 4° C. The supernatant was collected, determined for protein concentrations, and stored at −80° C. before further use.
# (§5) BMI-1/MCL-1 expression levels may be assessed with western blot analysis. […] The denatured protein samples were then loaded in 10% Tris-Glycine SDS polyacrylamide gel for separating proteins. The power supply for the running condition was set at 80 V for running stacking gel and 100 V for separating gel, respectively. […] The power supply for the transfer condition was set at 300 mA, and the transfer was carried out on ice for 2.5 hours. The nitrocellulose membranes containing the denatured proteins were blocked with a solution containing 5% skim milk at room temperature for 1 hour.
# After blocking, the membranes were washed with TBS containing 0.1% Tween-20 (TBST) for 5 minutes. […] After washing with TBST (5 min×3), the membranes were incubated with the secondary antibody (HRP-conjugated anti-mouse IgG, Jackson ImmunoReserch LABORATORIES INC., 1:5000) at room temperature for 1 hour. After washing with TBST (5 min×5), the membranes were incubated with chemiluminescence regent for 1 minute and imaged with a Bioluminiscent imaging system (Biospectrum-AC w/Bio Chemi Camera, UVP).
# MCL-1 = MCL-1 protein expression by western blot in H1975 cells; type: cell-based, human; details: for MCL-1 protein expression: 10 μM, 6 h, western blot; for inhibition of MCL-1 expression, dose dependence: different concentrations, western blot (#44: 6 h)
# Protocol: as §3, §4, §5
# In addition, the membranes were also probed with antibodies against MCL-1 and tubulin. Tubulin functions as an internal control to assess the relative loadings in different lanes on the gel. Myeloid cell leukemia 1 (MCL1) is a pro-survival protein overexpressed in many cancers.
# H1975-luc cells [2] = assay: Orthotopic H1975-Luc model, treatment starting 3 weeks after tumor implantation (FIG. 5); type: in vivo, mice; details: for tumor inhibition rate: day 21
# From the text: (§6) Mice were orthotopically implanted with H1975-luc cells (10^6 cells/mouse). On day 0 (defined as 3 weeks after tumor implantation), mice were imaged and started to receive drug treatments for 3 weeks (5 times/week). The tumor growths were followed by non-invasive imaging weekly.
# as §2
# as §6, with “In the second model, BI-44 was administrated starting 3 weeks after tumor implantation (FIG. 5A) when all the mice contained defined luciferase signals in lungs. Then, tumor growths were followed for 3 weeks (FIG. 5A). Mice” for “Mice”, “H1975-Luc” for “H1975-luc”
# H1975-Luc cells [3] = assay: In vivo anti-tumor test, orthotopic H1975-Luc mouse tumor model (FIG. 3); design: species or system SCID mice; details: 1 mpk IV tail vein, 5 times/7 days, 3 weeks
# From the text: Mice were orthotopically implanted with H1975-luc cells (10^6 cells/mouse), and started to receive drug treatments for 3 weeks. The tumor growths were followed by non-invasive bioluminescent imaging, and quantified. […] Tarceva ([…]) was administrated orally (20 mpk, 5 times/7 days). N=5 to 7 for each group.
# The derivatives showing potent anti-BMI-1/MCL-1 effects, such as compounds #43-45 (BI-43-BI-45), were selected for further in vivo anti-tumor test. The in vivo mouse tumor model was established as described below. • 1. SCID mice (70 mice, about […]) were quarantined for one week before lung cancer cells are implanted into their chest cavities. • 2. Before implanting the cancer cells into the mouse chest cavities, the mice were anesthetized with gas anesthesia. The mice were placed in a transparent acrylic box of 20 cm×10 cm×10 cm, which was connected with a flexible tubing to an anesthesia machine and an oxygen tank. Then, an appropriate amount of anesthesia (Isoflurane) was introduced into the anesthesia machine and the valve is open. […] One week after intra-thoracic implant of cancer cells, a luminescence reagent (D-luciferin) was injected into the abdominal cavities of the mice. […]
# After establishment of the tumors in mice, the test compounds were administered at the indicated doses and the tumor sizes were monitored using bioluminescence. […]
compound,measurement,setting,value
"CN(C)C/C=C/C(=O)Nc1cc2c(Nc3ccc(F)c(Cl)c3)ncnc2cc1O[C@H]1CCOC1 [Afatinib, reference compound]",tumor inhibition rate as compared to control,"H1975-luc cells [1]; Afatinib 20 mpk orally, day 28",around 80%
COc1cc(Br)c(Nc2nc(-c3c(C)nc4ncccn34)cs2)c(Br)c1 [Compound 43],BMI-1 protein expression,BMI-1,significantly reduced
same,MCL-1 protein expression,MCL-1,significantly reduced
"CCc1ccc(C(=O)Nc2cccc(-c3cccc4cc[nH]c34)c2)cc1 [Compound 44, N-(3-(1H-indol-7-yl)phenyl)-4-ethylbenzamide]",tumor inhibition rate,H1975-luc cells [2]; 3 mpk IV,around 90%
same,tumor inhibition rate,H1975-luc cells [2]; 9 mpk IV,around 90%
same,tumor growth inhibition,"H1975-luc cells [2]; IV 5 times/week for 3 weeks, 1, 3, 9 mpk",significantly inhibited tumor growth in a dose-dependent manner
same,tumor-free rate,H1975-luc cells [1]; day 14,62.5%
same,tumor-free rate,H1975-luc cells [1]; day 28,37.5%
same,tumor inhibition rate as compared to control,"H1975-luc cells [1]; BI-44 3 mpk IV, day 28",around 80%
same,bioluminescent intensities in mice lungs,"H1975-luc cells [1]; BI-44 3 mpk IV, days 14 and 28",significantly reduced bioluminescent intensities
same,BMI-1 protein expression,BMI-1,significantly reduced
same,"inhibition of BMI-1 expression, dose dependence",BMI-1,inhibits the expressions of BMI-1 and MCL-1 in a dose-dependent manner
same,"inhibition of BMI-1 expression, dose dependence",BMI-1; listed as #44,effectively inhibited the expressions of BMI-1 and MCL-1 at sub-μM concentrations
same,anti-tumor growth effects (bioluminescence),H1975-Luc cells [3],most significant anti-tumor growth effects
same,MCL-1 protein expression,MCL-1,significantly reduced
same,"inhibition of MCL-1 expression, dose dependence",MCL-1,inhibits the expressions of BMI-1 and MCL-1 in a dose-dependent manner
same,"inhibition of MCL-1 expression, dose dependence",MCL-1; listed as #44,effectively inhibited the expressions of BMI-1 and MCL-1 at sub-μM concentrations
O=C(Nc1cccc(Cl)c1)Nc1cccc(-c2cccc3cc[nH]c23)c1 [Compound 45],BMI-1 protein expression,BMI-1,significantly reduced
same,MCL-1 protein expression,MCL-1,significantly reduced
